Experimental data: ChEMBL document CHEMBL1157748, “4-hydroxy-1,2,5-oxadiazol-3-yl moiety as bioisoster of the carboxy function. Synthesis, ionization constants, and molecular pharmacological characterization at ionotropic glutamate receptors of compounds related to glutamate and its homologues” (J Med Chem, 2010)
The source made the active and inactive calls. No cut-off for these calls is given here.

Assays:
Glutamate NMDA receptor [1] = test: Displacement of [3H]CGP39653 from NMDA receptor in Sprague-Dawley rat brain membranes; type: cell membranes, Membrane
[2] = Displacement of [3H]AMPA from AMPA receptor in Sprague-Dawley rat brain membranes; type: cell membranes, Membrane
Glutamate receptor 2 [3] = molecular target: Glutamate receptor 2 (Rattus norvegicus, UniProt P19491); test: Displacement of [3H]AMPA from rat iGluR2 receptor expressed in Sf9 cells baculovirus system after 1 to 2 hrs by liquid scintillation counting
[4] = molecular target: Glutamate receptor ionotropic, kainate 1 (Rattus norvegicus, UniProt P22756); test: biochemical
Description: Displacement of [3H]SYM2081 from rat iGluR5 receptor expressed in Sf9 cells baculovirus system after 1 to 2 hrs by liquid scintillation counting

[5] = molecular target: Glutamate receptor ionotropic, kainate 2 (Rattus norvegicus, UniProt P42260); test: Displacement of [3H]SYM2081 from rat iGluR6 receptor expressed in Sf9 cells baculovirus system after 1 to 2 hrs by liquid scintillation counting
[6] = molecular target: T1, Glutamate NMDA receptor; Grin1/Grin2a (Rattus norvegicus, UniProt P35439+Q00959); test: Agonist activity at rat NR1/NR2A receptor expressed in BHK21 cells assessed as change in intracellular calcium levels at 1000 uM by FLIPR assay; type: functional, cell-based; conditions: bhk-21
[7] = molecular target: T1, Glutamate NMDA receptor; Grin1/Grin2a; test: Antagonist activity at rat NR1/NR2A receptor expressed in BHK21 cells assessed as inhibition of (S)-Glu-induced intracellular calcium levels by FLIPR assay; type: functional, cell-based, BHK-21
Glutamate receptor 2 [8] = molecular target: Glutamate receptor 2 (Homo sapiens, UniProt P42262); test: Activity at recombinant iGluR2 receptor expressed in Xenopus laevis oocytes using holding potential of -15 to -20 mV by TEVC electrophysiology; type: cell-based, Oocyte
[9] = molecular target: Glutamate receptor ionotropic, kainate 3 (Rattus norvegicus, UniProt P42264); test: Displacement of [3H]SYM2081 from rat iGluR7 receptor expressed in Sf9 cells baculovirus system after 1 to 2 hrs by liquid scintillation counting
[10] = molecular target: T2, Glutamate NMDA receptor; Grin1/Grin2a (Rattus norvegicus) (UniProt P35439+Q00959); test: Agonist activity at rat NR1/NR2A receptor expressed in BHK21 cells assessed as change in intracellular calcium levels by FLIPR assay relative to (S)-Glu; type: functional, cell-based; conditions: BHK-21
Glutamate NMDA receptor [11] = test: Displacement of [3H]CPP from NMDA receptor in Sprague-Dawley rat brain membranes; type: cell membranes, Membrane
[12] = molecular target: T1, Glutamate NMDA receptor; Grin1/Grin2a; test: Agonist activity at rat NR1/NR2A receptor expressed in BHK21 cells assessed as change in intracellular calcium levels by FLIPR assay; type: functional, cell-based, BHK-21
[13] = molecular target: T2, Glutamate NMDA receptor; Grin1/Grin2a (Rattus norvegicus); test: Agonist activity at rat NR1/NR2A receptor expressed in BHK21 cells assessed as increase in intracellular calcium levels by FLIPR assay; conditions: BHK-21

Sequence of Glutamate receptor ionotropic, kainate 2 (P42260 whole entry): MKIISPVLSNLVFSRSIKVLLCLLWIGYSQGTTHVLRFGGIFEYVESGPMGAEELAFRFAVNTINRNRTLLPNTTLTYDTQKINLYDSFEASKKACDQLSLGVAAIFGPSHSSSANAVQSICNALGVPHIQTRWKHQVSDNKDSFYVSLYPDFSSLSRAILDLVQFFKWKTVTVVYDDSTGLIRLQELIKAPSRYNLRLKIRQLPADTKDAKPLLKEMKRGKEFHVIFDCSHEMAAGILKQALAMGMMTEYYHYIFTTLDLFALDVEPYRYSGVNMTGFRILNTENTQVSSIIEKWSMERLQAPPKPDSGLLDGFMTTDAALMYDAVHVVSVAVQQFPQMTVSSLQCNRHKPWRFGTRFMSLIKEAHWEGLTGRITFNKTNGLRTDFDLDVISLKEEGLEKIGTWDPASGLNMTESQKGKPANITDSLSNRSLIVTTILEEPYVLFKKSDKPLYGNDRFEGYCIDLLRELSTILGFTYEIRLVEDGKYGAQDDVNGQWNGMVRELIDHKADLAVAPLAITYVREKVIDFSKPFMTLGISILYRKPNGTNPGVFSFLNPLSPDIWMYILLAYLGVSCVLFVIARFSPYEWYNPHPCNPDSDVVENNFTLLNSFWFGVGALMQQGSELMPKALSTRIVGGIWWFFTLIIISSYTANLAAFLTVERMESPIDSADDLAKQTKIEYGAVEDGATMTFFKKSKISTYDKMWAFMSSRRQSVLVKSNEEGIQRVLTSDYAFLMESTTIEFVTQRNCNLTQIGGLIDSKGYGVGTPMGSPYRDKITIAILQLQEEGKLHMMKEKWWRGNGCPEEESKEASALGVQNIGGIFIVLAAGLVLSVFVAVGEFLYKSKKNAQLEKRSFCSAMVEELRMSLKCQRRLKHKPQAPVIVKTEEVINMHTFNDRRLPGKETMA
Sequence of Glutamate receptor ionotropic, kainate 3 (P42264 whole entry): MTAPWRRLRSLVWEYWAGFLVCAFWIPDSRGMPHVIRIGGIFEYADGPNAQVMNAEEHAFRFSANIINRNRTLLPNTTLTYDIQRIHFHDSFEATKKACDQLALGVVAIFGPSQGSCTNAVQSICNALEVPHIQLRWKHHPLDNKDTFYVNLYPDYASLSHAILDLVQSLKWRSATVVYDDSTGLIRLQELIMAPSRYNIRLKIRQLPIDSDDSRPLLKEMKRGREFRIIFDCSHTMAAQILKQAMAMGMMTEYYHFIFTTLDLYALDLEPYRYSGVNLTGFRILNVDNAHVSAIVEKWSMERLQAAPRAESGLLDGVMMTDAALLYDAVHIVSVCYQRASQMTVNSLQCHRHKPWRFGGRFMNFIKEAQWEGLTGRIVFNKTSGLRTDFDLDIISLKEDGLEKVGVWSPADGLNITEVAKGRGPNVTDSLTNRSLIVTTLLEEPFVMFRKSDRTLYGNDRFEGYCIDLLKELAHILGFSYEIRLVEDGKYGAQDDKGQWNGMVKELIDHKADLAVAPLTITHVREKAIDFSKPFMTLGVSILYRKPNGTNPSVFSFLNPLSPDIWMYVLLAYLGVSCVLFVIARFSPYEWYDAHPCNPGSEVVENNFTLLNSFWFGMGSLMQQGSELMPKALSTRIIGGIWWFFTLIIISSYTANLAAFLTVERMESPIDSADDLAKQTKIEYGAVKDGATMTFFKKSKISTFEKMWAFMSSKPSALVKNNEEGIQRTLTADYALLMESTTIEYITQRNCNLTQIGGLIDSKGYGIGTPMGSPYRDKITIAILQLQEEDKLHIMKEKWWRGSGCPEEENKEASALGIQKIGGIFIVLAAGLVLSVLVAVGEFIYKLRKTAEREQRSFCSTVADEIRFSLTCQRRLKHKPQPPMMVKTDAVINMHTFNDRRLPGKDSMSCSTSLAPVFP
Sequence of Glutamate receptor 2 (Rattus norvegicus, UniProt P19491) (P19491 whole entry): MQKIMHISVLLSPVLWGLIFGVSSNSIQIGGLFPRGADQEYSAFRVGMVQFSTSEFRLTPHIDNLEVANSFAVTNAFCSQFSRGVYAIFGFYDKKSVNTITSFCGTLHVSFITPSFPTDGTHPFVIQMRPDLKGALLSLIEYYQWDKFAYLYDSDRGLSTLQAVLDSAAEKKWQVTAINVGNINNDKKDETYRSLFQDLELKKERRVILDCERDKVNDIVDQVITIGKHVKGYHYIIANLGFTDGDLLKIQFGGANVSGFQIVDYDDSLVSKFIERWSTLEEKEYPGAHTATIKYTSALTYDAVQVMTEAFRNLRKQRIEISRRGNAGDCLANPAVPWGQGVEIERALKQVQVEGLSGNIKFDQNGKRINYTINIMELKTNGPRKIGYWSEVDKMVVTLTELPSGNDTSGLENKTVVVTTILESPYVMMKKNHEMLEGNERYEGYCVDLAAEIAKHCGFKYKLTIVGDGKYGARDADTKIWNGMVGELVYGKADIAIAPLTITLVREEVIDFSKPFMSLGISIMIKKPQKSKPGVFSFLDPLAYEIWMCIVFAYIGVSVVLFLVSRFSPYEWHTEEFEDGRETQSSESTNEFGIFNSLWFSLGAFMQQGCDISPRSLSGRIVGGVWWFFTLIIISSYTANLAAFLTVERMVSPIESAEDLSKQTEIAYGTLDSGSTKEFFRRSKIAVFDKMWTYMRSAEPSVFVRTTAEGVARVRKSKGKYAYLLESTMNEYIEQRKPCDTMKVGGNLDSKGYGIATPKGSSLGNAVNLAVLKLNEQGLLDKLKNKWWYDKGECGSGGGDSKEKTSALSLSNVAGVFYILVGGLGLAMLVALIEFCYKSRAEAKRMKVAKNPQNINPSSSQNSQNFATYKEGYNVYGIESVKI
Sequence of Glutamate receptor 2 (Homo sapiens, UniProt P42262) (P42262 whole entry): as the sequence (P19491 whole entry) above, with T191M, A291T, G764R, P852A counted along it
Sequence of Glutamate receptor ionotropic, kainate 1 (P22756 whole entry): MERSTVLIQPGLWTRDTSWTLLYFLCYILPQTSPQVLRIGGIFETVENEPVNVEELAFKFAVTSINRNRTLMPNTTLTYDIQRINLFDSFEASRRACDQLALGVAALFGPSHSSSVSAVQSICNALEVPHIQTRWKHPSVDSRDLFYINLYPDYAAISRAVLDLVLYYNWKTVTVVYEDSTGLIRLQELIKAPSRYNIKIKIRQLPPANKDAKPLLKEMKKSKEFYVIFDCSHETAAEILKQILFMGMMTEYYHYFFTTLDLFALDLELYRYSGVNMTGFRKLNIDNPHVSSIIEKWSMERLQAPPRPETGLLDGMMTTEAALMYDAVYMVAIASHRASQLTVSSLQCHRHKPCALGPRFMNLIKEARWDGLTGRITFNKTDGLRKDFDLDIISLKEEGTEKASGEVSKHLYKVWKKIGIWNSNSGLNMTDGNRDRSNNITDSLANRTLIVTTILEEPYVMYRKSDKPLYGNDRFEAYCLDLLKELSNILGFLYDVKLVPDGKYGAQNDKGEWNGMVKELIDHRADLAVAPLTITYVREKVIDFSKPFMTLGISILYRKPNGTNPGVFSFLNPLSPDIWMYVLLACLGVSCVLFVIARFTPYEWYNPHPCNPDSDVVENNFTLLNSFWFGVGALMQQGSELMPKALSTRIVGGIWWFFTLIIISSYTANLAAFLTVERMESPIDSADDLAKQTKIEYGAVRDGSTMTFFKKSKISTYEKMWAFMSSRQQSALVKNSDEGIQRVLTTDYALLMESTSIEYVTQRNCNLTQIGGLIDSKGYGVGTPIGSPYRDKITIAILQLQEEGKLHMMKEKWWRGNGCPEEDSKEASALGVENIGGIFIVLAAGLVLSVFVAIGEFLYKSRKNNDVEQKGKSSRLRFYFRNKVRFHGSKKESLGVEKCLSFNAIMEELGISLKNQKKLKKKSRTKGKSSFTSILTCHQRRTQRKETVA

Row | SMILES | Ki (Glutamate NMDA receptor [1]) [µM] | IC50 [2] [µM] | pIC50 [2] | other results
1 | NC(CCc1nonc1O)C(=O)O (stereo in doubt; (+)-15) [2-AMINO-4-(4-HYDROXY-1,2,5-OXADIAZOL-3-YL)BUTANOIC ACID (STRUCTURAL MIX)] | 73 | 42 | 4.37 | Ki (Glutamate receptor 2 [3]): 40 µM; Ki [4]: 53 µM; Ki [5]: > 1000 µM; EC50 [6]: Not Active; IC50 [7]: 1020 µM; EC50 (Glutamate receptor 2 [8]): 489 µM; Ki [9]: 41 µM
2 | NC(Cc1nonc1O)C(=O)O (single isomer, unassigned; (+)) |  |  |  | Imax [10]: 0.76
3 | C=C(C)[C@H]1CN[C@H](C(=O)O)[C@H]1CC(=O)O [KAINIC ACID] | > 100 | 4 |  | 
4 | NC(Cc1nsnc1O)C(=O)O (racemic) |  | 0.12 |  | Ki (Glutamate NMDA receptor [11]): > 100 µM
5 | NC(Cc1nonc1O)C(=O)O (stereo in doubt; (-)-10) [2-AMINO-3-(4-HYDROXY-1,2,5-OXADIAZOL-3-YL)PROPIONIC ACID (STRUCTURAL MIX)] | > 100 | 0.76 |  | Ki (Glutamate receptor 2 [3]): 0.25 µM; Ki [4]: 77 µM; Ki ([5]; sf9): > 100 µM; EC50 (Glutamate receptor 2 [8]): 43 µM; Ki ([9]; sf9): > 100 µM; EC50 [12]: > 500 µM
6 | Cc1onc(O)c1CC(N)C(=O)O (racemic) [(R,S)-AMPA] |  | 0.039 |  | 
7 | NC(Cc1nonc1O)C(=O)O (single isomer, unassigned; (+)) [2-AMINO-3-(4-HYDROXY-1,2,5-OXADIAZOL-3-YL)PROPIONIC ACID (STRUCTURAL MIX)] | 13 | 0.11 | 6.95 | Ki (Glutamate receptor 2 [3]): 0.043 µM; Ki [4]: 8.1 µM; Ki [5]: > 100 µM; EC50 (Glutamate receptor 2 [8]): 9.4 µM; Ki [9]: > 100 µM; EC50 [12]: 47 µM
8 | NC(Cc1nonc1O)C(=O)O (racemic) [2-AMINO-3-(4-HYDROXY-1,2,5-OXADIAZOL-3-YL)PROPIONIC ACID (STRUCTURAL MIX)] | 16 | 0.17 | 6.76 | 
9 | NC(CCc1nonc1O)C(=O)O (racemic) |  |  |  | Activity [13]: inactive
10 | NC(CCCc1nonc1O)C(=O)O (racemic) |  |  |  | Activity [13]: inactive

Now from value to molecule, other results behind:

Row | Ki (Glutamate NMDA receptor [1]) [µM] | IC50 [2] [µM] | pIC50 [2] | SMILES | other results
11 | 6.3 | > 100 |  | NC(C(=O)O)c1nonc1O (racemic) | 
12 | 6.2 | > 100 |  | CN[C@H](CC(=O)O)C(=O)O [N-METHYL-D-ASPARTIC ACID (NMDA)] | 
13 | 3.4 | > 100 |  | NC(CCc1nonc1O)C(=O)O (single isomer, unassigned; (-)) [2-AMINO-4-(4-HYDROXY-1,2,5-OXADIAZOL-3-YL)BUTANOIC ACID (STRUCTURAL MIX)] | IC50 [7]: 49 µM
14 | 22 | 42 | 4.37 | NC(CCCc1nonc1O)C(=O)O (stereo in doubt; (+)-18) [2-AMINO-5-(4-HYDROXY-1,2,5-OXADIAZOL-3-YL)PENTANOIC ACID (STRUCTURAL MIX)] | Ki (Glutamate receptor 2 [3]): 20 µM; Ki [4]: 67 µM; Ki [5]: > 1000 µM; EC50 [6]: Not Active; IC50 [7]: 245 µM; EC50 (Glutamate receptor 2 [8]): 491 µM; Ki [9]: > 1000 µM
15 | 1.8 | > 100 |  | NC(CCCc1nonc1O)C(=O)O (stereo in doubt; (-)-18) [2-AMINO-5-(4-HYDROXY-1,2,5-OXADIAZOL-3-YL)PENTANOIC ACID (STRUCTURAL MIX)] | IC50 [7]: 28 µM
16 | 2.9 | 61 | 4.22 | NC(CCCc1nonc1O)C(=O)O (racemic) [2-AMINO-5-(4-HYDROXY-1,2,5-OXADIAZOL-3-YL)PENTANOIC ACID (STRUCTURAL MIX)] | 
17 | 4.9 | 77 | 4.12 | NC(CCc1nonc1O)C(=O)O (racemic) [2-AMINO-4-(4-HYDROXY-1,2,5-OXADIAZOL-3-YL)BUTANOIC ACID (STRUCTURAL MIX)] | 
